Laboratory results reported in ChEMBL document CHEMBL1201862, “PubChem BioAssay data set” (2004).
Where “and” joins values, the source holds several entries; their conditions need not be identical. Equal entries are not always repeated.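 How tested: cells in 96-well plates exposed to compound for 48 hours at five concentrations. The concentration for 50% growth inhibition is given as GI50.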 Calls of active or inactive are those of the source. Cut-off read from the data, not from the text of the source: active = GI50 up to about 1.1 µM and inactive = higher.

What was measured:
Assay in all cases: NCI anticancer screen, dose series, 48 h
M14 = test system: M14
T47D = test system: T47D
ACHN = test system: ACHN
LOX IMVI = test system: LOX IMVI
UO-31 = test system: UO-31
786-0 = test system: 786-0
OVCAR-8 = test system: OVCAR-8
RPMI-8226 = test system: RPMI-8226
NCI-H23 = test system: NCI-H23
U-251 = test system: U-251
CCRF-CEM = test system: CCRF-CEM
Malme-3M = test system: Malme-3M
SK-MEL-5 = test system: SK-MEL-5
TK-10 = test system: TK-10
Hs-578T = test system: Hs-578T
DU-145 = test system: DU-145
HT-29 = test system: HT-29
EKVX = test system: EKVX
SR = test system: SR
HOP-92 = test system: HOP-92

SMILES	GI50 (M14)	GI50 (T47D)	GI50 (ACHN)	GI50 (LOX IMVI)	GI50 (UO-31)	GI50 (786-0)	GI50 (OVCAR-8)	GI50 (RPMI-8226)	GI50 (NCI-H23)	GI50 (U-251)	GI50 (CCRF-CEM)	GI50 (Malme-3M)	GI50 (SK-MEL-5)	GI50 (TK-10)	GI50 (Hs-578T)	GI50 (DU-145)	GI50 (HT-29)	GI50 (EKVX)	GI50 (SR)	GI50 (HOP-92)
N#Cc1c(-c2ccccc2)c(/C=N/c2ccc(Cl)cc2)c(=O)n2c1[nH]c1ccccc12	> 100 µM (inactive)	> 100 µM (inactive)	65.2 µM (inactive)	> 100 µM (inactive)	34.4 µM (inactive)	> 100 µM (inactive)	> 100 µM (inactive)	4.43 µM (inactive)	> 100 µM (inactive)	> 100 µM (inactive)	21.4 µM (inactive)	> 100 µM (inactive)	> 100 µM (inactive)	> 100 µM (inactive)	–	–	–	–	–	–
c1ccc2nn(C3CCCO3)nc2c1 (centres undefined)	> 100 µM (inactive)	> 100 µM (inactive)	–	–	–	> 100 µM (inactive)	> 100 µM (inactive)	–	> 100 µM (inactive)	> 100 µM (inactive)	> 100 µM (inactive)	> 100 µM (inactive)	> 100 µM (inactive)	> 100 µM (inactive)	> 100 µM (inactive)	> 100 µM (inactive)	> 100 µM (inactive)	> 100 µM (inactive)	–	–
O=c1[nH]cc(OCC(F)(F)F)c(=O)[nH]1	> 100 µM (inactive)	–	> 100 µM (inactive)	> 100 µM (inactive)	> 100 µM (inactive)	> 100 µM (inactive)	> 100 µM (inactive)	> 100 µM (inactive)	> 100 µM (inactive)	> 100 µM (inactive)	> 100 µM (inactive)	> 100 µM (inactive)	> 100 µM (inactive)	> 100 µM (inactive)	–	–	> 100 µM (inactive)	> 100 µM (inactive)	> 100 µM (inactive)	> 100 µM (inactive)
O=C1CCC2CCC1C2 (centres undefined)	> 100 µM (inactive)	> 100 µM (inactive)	> 100 µM (inactive)	> 100 µM (inactive)	> 100 µM (inactive)	> 100 µM (inactive)	> 100 µM (inactive)	> 100 µM (inactive)	> 100 µM (inactive)	> 100 µM (inactive)	> 100 µM (inactive)	> 100 µM (inactive)	> 100 µM (inactive)	> 100 µM (inactive)	> 100 µM (inactive)	> 100 µM (inactive)	> 100 µM (inactive)	–	–	–
COc1ccc(C(O)c2ccc3c(c2)OCO3)cc1 (centres undefined)	> 100 µM (inactive)	99.3 µM (inactive)	> 100 µM (inactive)	> 100 µM (inactive)	74.1 µM (inactive)	> 100 µM (inactive)	> 100 µM (inactive)	–	> 100 µM (inactive)	> 100 µM (inactive)	> 100 µM (inactive)	> 100 µM (inactive)	–	> 100 µM (inactive)	–	> 100 µM (inactive)	> 100 µM (inactive)	> 100 µM (inactive)	25.6 µM (inactive)	> 100 µM (inactive)
CC(=O)OCc1cc(OC(C)=O)c2cc3c(OC(C)=O)cccc3c(OC(C)=O)c2c1	12.5 µM (inactive)	21.7 µM (inactive)	11.6 µM (inactive)	–	17 µM (inactive)	13 µM (inactive)	13.3 µM (inactive)	11.2 µM (inactive)	17.1 µM (inactive)	15.6 µM (inactive)	> 10 µM (inactive)	1.64 µM (inactive)	11.2 µM (inactive)	12.7 µM (inactive)	–	16.7 µM (inactive)	14.8 µM (inactive)	6.7 µM (inactive)	19.5 µM (inactive)	20.4 µM (inactive)
CN(N=O)C(=O)Nc1c[nH]c(=O)[nH]c1=O	> 100 µM (inactive)	> 100 µM (inactive)	> 100 µM (inactive)	> 100 µM (inactive)	> 100 µM (inactive)	> 100 µM (inactive)	> 100 µM (inactive)	–	> 100 µM (inactive)	> 100 µM (inactive)	> 100 µM (inactive)	> 100 µM (inactive)	> 100 µM (inactive)	> 100 µM (inactive)	–	> 100 µM (inactive)	> 100 µM (inactive)	> 100 µM (inactive)	–	> 100 µM (inactive)
OC1(c2ccccc2)C2CCN(CC2)C1CN1CCOCC1 (centres undefined)	> 100 µM (inactive)	> 100 µM (inactive)	> 100 µM (inactive)	> 100 µM (inactive)	> 100 µM (inactive)	> 100 µM (inactive)	> 100 µM (inactive)	> 100 µM (inactive)	> 100 µM (inactive)	> 100 µM (inactive)	> 100 µM (inactive)	> 100 µM (inactive)	> 100 µM (inactive)	> 100 µM (inactive)	–	> 100 µM (inactive)	> 100 µM (inactive)	> 100 µM (inactive)	> 100 µM (inactive)	–
O=C1C(NS(=O)(=O)c2ccccc2)=C(n2cnc3ccccc32)C(=O)c2ccccc21	> 100 µM (inactive)	–	> 100 µM (inactive)	> 100 µM (inactive)	75.3 µM (inactive)	60.4 µM (inactive)	> 100 µM (inactive)	50.5 µM (inactive)	58.2 µM (inactive)	46.1 µM (inactive)	85.9 µM (inactive)	> 100 µM (inactive)	> 100 µM (inactive)	89.3 µM (inactive)	48.6 µM (inactive)	> 100 µM (inactive)	> 100 µM (inactive)	> 100 µM (inactive)	> 100 µM (inactive)	41.4 µM (inactive)
CCN1CC2=C(NC(=S)NC2c2ccc(Cl)cc2)/C(=C/c2ccc(Cl)cc2)C1 (centres undefined)	> 100 µM (inactive)	–	55.7 µM (inactive)	> 100 µM (inactive)	> 100 µM (inactive)	45.6 µM (inactive)	88.5 µM (inactive)	17.5 µM (inactive)	> 100 µM (inactive)	45.3 µM (inactive)	14.5 µM (inactive)	97.3 µM (inactive)	97.7 µM (inactive)	> 100 µM (inactive)	57.5 µM (inactive)	> 100 µM (inactive)	> 100 µM (inactive)	> 100 µM (inactive)	–	–
O=C(c1ccncc1)C1C(=O)c2ccccc2C1C1(O)c2ccccc2CC1C(O)c1ccncc1 (centres undefined)	25.8 µM (inactive)	50.8 µM (inactive)	62.1 µM (inactive)	33.4 µM (inactive)	13.9 µM (inactive)	39.9 µM (inactive)	60 µM (inactive)	19 µM (inactive)	48.6 µM (inactive)	41 µM (inactive)	–	58.7 µM (inactive)	36 µM (inactive)	90.8 µM (inactive)	38.6 µM (inactive)	–	35.6 µM (inactive)	33 µM (inactive)	36.7 µM (inactive)	47.9 µM (inactive)
CCCCC(C(=O)CCC(=O)Nc1ccc(Cl)c(Cl)c1)C(=O)C(C)C (centres undefined)	82.8 µM (inactive)	–	31.2 µM (inactive)	63.2 µM (inactive)	> 100 µM (inactive)	> 100 µM (inactive)	> 100 µM (inactive)	> 100 µM (inactive)	> 100 µM (inactive)	> 100 µM (inactive)	> 100 µM (inactive)	> 100 µM (inactive)	> 100 µM (inactive)	90.4 µM (inactive)	–	–	> 100 µM (inactive)	> 100 µM (inactive)	> 100 µM (inactive)	> 100 µM (inactive)
COC1C(OC(C)=O)CC(=O)OC(C)C/C=C/C=C\C(O)C(C)CC(CC=O)C1OC1OC(C)C(OC2CC(C)(O)C(OC(=O)CC(C)C)C(C)O2)C(N(C)C)C1O (centres undefined)	89.3 µM (inactive) and 57.5 µM (inactive)	> 100 µM (inactive)	> 100 µM (inactive)	–	64.9 µM (inactive) and 43.8 µM (inactive)	> 100 µM (inactive)	> 100 µM (inactive)	> 100 µM (inactive) and 58.2 µM (inactive)	> 100 µM (inactive)	> 100 µM (inactive)	45.3 µM (inactive) and 33 µM (inactive)	> 100 µM (inactive)	46.9 µM (inactive) and 39.3 µM (inactive)	> 100 µM (inactive)	–	97.9 µM (inactive)	> 100 µM (inactive) and 67.9 µM (inactive)	–	24.6 µM (inactive) and 18.5 µM (inactive)	> 100 µM (inactive)
CC(=O)C1C(=O)C(=O)N(c2ccccc2)C1=O (centres undefined)	> 100 µM (inactive)	–	> 100 µM (inactive)	> 100 µM (inactive)	> 100 µM (inactive)	> 100 µM (inactive)	> 100 µM (inactive)	–	> 100 µM (inactive)	> 100 µM (inactive)	> 100 µM (inactive)	–	> 100 µM (inactive)	> 100 µM (inactive)	> 100 µM (inactive)	> 100 µM (inactive)	> 100 µM (inactive)	> 100 µM (inactive)	–	> 100 µM (inactive)
O=C(O)CNC(=O)c1c2ccccc2nc2ccccc12	> 100 µM (inactive)	–	> 100 µM (inactive)	> 100 µM (inactive)	> 100 µM (inactive)	> 100 µM (inactive)	> 100 µM (inactive)	> 100 µM (inactive)	> 100 µM (inactive)	> 100 µM (inactive)	> 100 µM (inactive)	> 100 µM (inactive)	> 100 µM (inactive)	> 100 µM (inactive)	–	> 100 µM (inactive)	> 100 µM (inactive)	> 100 µM (inactive)	> 100 µM (inactive)	> 100 µM (inactive)
CC(=O)O[C@H]1C(=O)[C@@]2(C)[C@H]([C@H](OC(=O)c3ccccc3)[C@]3(O)C[C@H](OC(=O)[C@H](O)[C@@H](NC(=O)c4ccccc4)c4ccccc4)C(C)=C1C3(C)C)[C@]1(OC(C)=O)CO[C@@H]1C[C@@H]2O [PACLITAXEL]	0.0229 µM (active)	–	0.661 µM (active)	0.00355 µM (active)	1.09 µM (active)	0.0337 µM (active)	–	0.00267 µM (active)	0.00396 µM (active)	0.00384 µM (active)	0.00267 µM (active)	0.029 µM (active)	0.00388 µM (active)	0.113 µM (active)	0.00597 µM (active)	0.0239 µM (active)	0.00273 µM (active)	–	–	–
